Laboratory results as given in PMC9864808, “Exploring Mannosylpurines as Copper Chelators and Cholinesterase Inhibitors with Potential for Alzheimer’s Disease” (Pharmaceuticals, 2022).
Several values for one entry are separate records, joined by “and”; a condition that tells them apart may be missing. Equal entries are not always repeated.

Key:
[1] = UV-Visible chelating study, aluminum; conditions: UV-Visible absorption
Experimental: (§1) The chelating activity of all purine nucleoside probes was evaluated by the UV-Visible method in order to determine compounds’ absorption spectra in the absence and in the presence of Cu^2+ at concentrations ranging from 1 μM to 10 μM. […] The resulting wavelength shift from λ = 280 to λ = 325 nm indicates a conformational rearrangement induced by interaction with Cu^2+.
(§2) UV-Visible spectroscopy offers the advantage of high sensitivity towards small changes that affect the electronic properties of ligand receptors, so absorption spectra of all reported compounds have been evaluated by recording UV-visible properties in subsequent conditions: 1.5 mL 1 × 10^−4M of the probe are added to 1.5 mL 2 × 10^−5M of each ion chloride salt’s solution (Copper Chloride (CuCl2), Zinc Chloride (ZnCl2), Iron (II) Chloride (FeCl2) and Aluminum Chloride (AlCl3)). A mixture of distilled water/DMSO 95:5 has been selected as a solvent for compounds 5–10 and 12. For compounds 14–16, the selected solvent was a mixture of distilled water/DMSO 90:10 due to poor water solubility. Furthermore, a titration assay of each compound has been carried out by adding increasing concentration of selected ion (final ion concentration = 1 µM, 2 µM, 3 µM, 5 µM, and 10 µM).

[2] = UV-Visible chelating study, copper; conditions: ions Cu^2+, Zn^2+, Fe^2+, Al^3+ as chlorides, water/DMSO
Experimental: as §1, §2

[3] = target: T1, eqBChE (horse serum butyrylcholinesterase) (Equus caballus, UniProt P81908); assay: biochemical; conditions: for IC50: horse serum BChE, means ± SD of three measurements; for inhibition at 20 µM: read-out: inhibition percentage eqBChE
T1 construct: eqBChE (horse serum BChE); from tissue; host or cells: horse serum
Experimental: (§3) The in vitro inhibitory activities of novel purine nucleosides 5-10, 12, 13 and 15, and 16 were evaluated against both heterologous (electric eel eeAChE, horse eqBChE) and human (recombinant) cholinesterases isoforms, by applying the Ellmann colorimetric assay, with slight modifications. […] The test compounds were assayed for their inhibitory activity toward eeAChE (electric eel AChE) and eqBChE (horse serum BChE), respectively, following Ellman’s method with modifications. […] AChE inhibitory activity was determined similarly by using a solution of AChE (0.9 U/mL in 0.1 M pH 8.0 phosphate buffer, PB) and acetylthiocholine iodide (ATC, 0.05 mM in 0.1 M pH 8.0 phosphate buffer, PB) as substrate. The inhibition data are reported as means of IC50’s determined at least in three independent measurements.

[4] = target: eeAChE (electric eel acetylcholinesterase) (Electrophorus electricus, UniProt O42275); assay: biochemical; conditions: for IC50: Ellman assay, means ± SD of three measurements; for inhibition at 20 µM: read-out: inhibition percentage eeAChE, at 20 μM
Experimental: as §3

[5] = UV-Visible chelating study, iron; conditions: UV-Visible absorption
Experimental: as §1, §2

[6] = target: hBChE (recombinant human isoform) (Homo sapiens, UniProt P06276); assay: biochemical; format: biochemical; conditions: for IC50: recombinant human isoform, means ± SD of three measurements
Experimental: (§4) The in vitro inhibitory activities of novel purine nucleosides 5-10, 12, 13 and 15, and 16 were evaluated against both heterologous (electric eel eeAChE, horse eqBChE) and human (recombinant) cholinesterases isoforms, by applying the Ellmann colorimetric assay, with slight modifications.
(§5) The test compounds were assayed for their inhibitory activity toward eeAChE (electric eel AChE) and eqBChE (horse serum BChE), respectively, following Ellman’s method with modifications. […] AChE inhibitory activity was determined similarly by using a solution of AChE (0.9 U/mL in 0.1 M pH 8.0 phosphate buffer, PB) and acetylthiocholine iodide (ATC, 0.05 mM in 0.1 M pH 8.0 phosphate buffer, PB) as substrate. The inhibition data are reported as means of IC50’s determined at least in three independent measurements.

[7] = target: hAChE (recombinant human isoform) (Homo sapiens, UniProt P22303); assay: biochemical; format: biochemical; conditions: for inhibition at 20 µM: read-out: inhibition percentage hAChE; for IC50: recombinant human isoform, means ± SD of three measurements
Experimental: as §4, §5

[8] = UV-Visible chelating study, zinc; conditions: UV-Visible absorption
Experimental: as §1, §2

[9] = Water solubility (qualitative remark); format: physicochemical
serum BChE = conditions: literature value determined for serum BChE; read-out: IC50 hBChE; cited from earlier work
brain AChE = conditions: literature value determined for brain AChE; read-out: IC50 hAChE; cited from earlier work
[10] = at 5 μM (lower water solubility), 5 µM

T1 sequence (P81908 whole entry): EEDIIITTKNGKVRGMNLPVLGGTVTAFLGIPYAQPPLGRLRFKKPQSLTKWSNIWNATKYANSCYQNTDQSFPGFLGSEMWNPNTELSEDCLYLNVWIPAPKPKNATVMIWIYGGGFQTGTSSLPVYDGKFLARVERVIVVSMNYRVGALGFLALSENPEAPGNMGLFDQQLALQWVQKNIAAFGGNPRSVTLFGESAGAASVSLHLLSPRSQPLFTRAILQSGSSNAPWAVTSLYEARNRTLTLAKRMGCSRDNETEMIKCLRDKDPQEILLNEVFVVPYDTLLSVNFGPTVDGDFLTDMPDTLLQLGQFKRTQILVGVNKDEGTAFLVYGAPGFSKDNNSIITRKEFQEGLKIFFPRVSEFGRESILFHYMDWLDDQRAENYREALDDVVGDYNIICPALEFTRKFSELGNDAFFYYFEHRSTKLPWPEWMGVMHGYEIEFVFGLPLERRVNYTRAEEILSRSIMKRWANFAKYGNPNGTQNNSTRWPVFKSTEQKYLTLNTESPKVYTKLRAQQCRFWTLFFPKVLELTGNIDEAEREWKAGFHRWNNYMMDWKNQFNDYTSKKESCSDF
hBChE (recombinant human isoform), sequence (P06276 29-602): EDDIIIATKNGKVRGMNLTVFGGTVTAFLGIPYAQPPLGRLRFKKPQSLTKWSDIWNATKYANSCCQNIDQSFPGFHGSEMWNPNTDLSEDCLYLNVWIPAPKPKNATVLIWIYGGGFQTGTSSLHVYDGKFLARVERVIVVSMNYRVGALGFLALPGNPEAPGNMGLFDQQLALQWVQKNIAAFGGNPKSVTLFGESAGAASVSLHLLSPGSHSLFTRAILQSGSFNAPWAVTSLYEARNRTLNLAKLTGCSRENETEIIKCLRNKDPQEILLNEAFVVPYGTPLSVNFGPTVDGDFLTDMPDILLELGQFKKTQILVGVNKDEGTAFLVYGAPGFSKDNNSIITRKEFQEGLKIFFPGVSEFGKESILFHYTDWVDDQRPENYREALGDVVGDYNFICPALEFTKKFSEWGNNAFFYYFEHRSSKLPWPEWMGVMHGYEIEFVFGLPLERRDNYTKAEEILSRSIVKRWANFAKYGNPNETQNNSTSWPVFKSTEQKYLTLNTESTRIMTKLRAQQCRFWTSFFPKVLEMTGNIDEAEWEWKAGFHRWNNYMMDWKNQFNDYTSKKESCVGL
eeAChE (electric eel acetylcholinesterase), sequence (O42275 24-633): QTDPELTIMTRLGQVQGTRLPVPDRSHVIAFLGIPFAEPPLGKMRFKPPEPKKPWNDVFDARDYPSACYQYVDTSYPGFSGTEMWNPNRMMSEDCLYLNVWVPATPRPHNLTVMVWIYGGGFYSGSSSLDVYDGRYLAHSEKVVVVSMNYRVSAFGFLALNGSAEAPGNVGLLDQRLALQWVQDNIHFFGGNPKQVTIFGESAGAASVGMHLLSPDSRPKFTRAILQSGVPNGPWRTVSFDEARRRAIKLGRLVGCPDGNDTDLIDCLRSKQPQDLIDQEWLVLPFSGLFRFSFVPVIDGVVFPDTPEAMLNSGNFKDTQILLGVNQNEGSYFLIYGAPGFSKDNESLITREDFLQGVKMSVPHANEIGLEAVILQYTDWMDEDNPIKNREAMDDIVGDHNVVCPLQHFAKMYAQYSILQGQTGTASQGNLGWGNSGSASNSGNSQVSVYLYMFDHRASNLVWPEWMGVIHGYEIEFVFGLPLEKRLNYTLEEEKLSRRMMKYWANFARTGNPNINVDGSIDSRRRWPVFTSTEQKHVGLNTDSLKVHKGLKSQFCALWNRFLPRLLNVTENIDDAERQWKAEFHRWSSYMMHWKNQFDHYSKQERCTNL
hAChE (recombinant human isoform), sequence (P22303 32-614): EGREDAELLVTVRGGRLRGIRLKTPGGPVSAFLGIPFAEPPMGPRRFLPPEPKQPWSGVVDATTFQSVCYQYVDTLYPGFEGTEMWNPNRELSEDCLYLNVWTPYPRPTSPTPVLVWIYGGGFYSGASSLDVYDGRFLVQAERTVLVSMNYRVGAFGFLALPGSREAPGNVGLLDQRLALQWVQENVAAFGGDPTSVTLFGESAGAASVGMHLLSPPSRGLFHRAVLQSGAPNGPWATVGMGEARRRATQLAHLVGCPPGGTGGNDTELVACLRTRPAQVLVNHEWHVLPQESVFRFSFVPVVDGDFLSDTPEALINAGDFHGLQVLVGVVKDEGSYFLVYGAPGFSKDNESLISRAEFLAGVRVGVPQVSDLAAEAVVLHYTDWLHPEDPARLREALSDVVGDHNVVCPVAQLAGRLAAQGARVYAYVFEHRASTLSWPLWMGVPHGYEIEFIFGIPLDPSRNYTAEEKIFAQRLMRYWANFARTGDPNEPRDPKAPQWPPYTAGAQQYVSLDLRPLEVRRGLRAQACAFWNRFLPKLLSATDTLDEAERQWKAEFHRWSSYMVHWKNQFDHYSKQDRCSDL

Row | Structure (SMILES) | chelating activity / metal selectivity, result in words [2] | eqBChE inhibition, result in words [3] | IC50 [3] | IC50 [4] | IC50 [6] | IC50 [7] | also measured
1 | C[C@@H]1O[C@@H](n2cnc3c(N(Cc4ccccc4)C(=O)c4ccccc4)ncnc32)[C@H](OCc2ccccc2)[C@H](OCc2ccccc2)[C@H]1OCc1ccccc1 [Compound 13, 6-benzamido-N-benzyl-9-(6-deoxy-2,3,4-tri-O-benzyl-α-L-mannopyranosyl)purine] | did not show chelating activity | selective | 5.1 µM and 5.12 µM | > 20 µM | > 20 µM | > 20 µM | interaction with aluminum ion, result in words [1]: did not show chelating activity; inhibition at 20 µM [4]: 6%; interaction with iron ion, result in words [5]: did not show chelating activity; hBChE inhibition, result in words [6]: no activity; inhibition at 20 µM ([6]; at 20 μM, read-out: inhibition percentage hBChE): 25%; hAChE inhibition, result in words [7]: no activity; inhibition at 20 µM [7]: 8%; interaction with zinc ion, result in words [8]: did not show chelating activity
2 | O=C(Nc1ncnc2c1ncn2[C@@H]1O[C@H](COCc2ccccc2)[C@@H](OCc2ccccc2)[C@H](OCc2ccccc2)[C@@H]1OCc1ccccc1)c1ccccc1 [Compound 6, 6-benzamido-9-(2,3,4,6-tetra-O-benzyl-β-D-mannopyranosyl)purine] | – | – | 4.3 µM and 4.29 µM | 10.6 ± 1.1 µM | 4.6 µM and 4.58 µM | 17 ± 0.75 µM | –
3 | O=C(Nc1ncnc2c1ncn2[C@H]1O[C@H](COCc2ccccc2)[C@@H](OCc2ccccc2)[C@H](OCc2ccccc2)[C@@H]1OCc1ccccc1)c1ccccc1 [Compound 5, 6-benzamido-9-(2,3,4,6-tetra-O-benzyl-α-D-mannopyranosyl)purine] | – | – | > 20 µM | > 20 µM | – | – | inhibition at 20 µM [3]: 11%; inhibition at 20 µM [4]: 25%
4 | CC(=O)Nc1nc(Cl)c2c(ncn2[C@H]2O[C@H](COCc3ccccc3)[C@@H](OCc3ccccc3)[C@H](OCc3ccccc3)[C@@H]2OCc2ccccc2)n1 [Compound 2, reference compound] | – | – | 0.05 ± 0.01 µM | 18.1 ± 4.8 µM | – | – | –
5 | Clc1ncnc2c1ncn2[C@H]1O[C@H](COCc2ccccc2)[C@@H](OCc2ccccc2)[C@H](OCc2ccccc2)[C@@H]1OCc1ccccc1 [Compound 1, 6-chloro-9-(2,3,4,6-tetra-O-benzyl-α-D-mannopyranosyl)purine, reference compound] | – | – | 2.8 ± 0.3 µM | 2.4 ± 0.3 µM | – | – | –
6 | O=C(Nc1ncnc2ncn([C@H]3O[C@H](COCc4ccccc4)[C@@H](OCc4ccccc4)[C@H](OCc4ccccc4)[C@@H]3OCc3ccccc3)c12)c1ccccc1 [Compound 7, 6-benzamido-7-(2,3,4,6-tetra-O-benzyl-α-D-mannopyranosyl)purine] | – | selective | 10 ± 1.1 µM | > 20 µM | – | – | –
7 | CC(=O)O[C@@H]1[C@@H](OC(C)=O)[C@H](C)O[C@@H](n2cnc3c(NC(=O)c4ccccc4)ncnc32)[C@@H]1OC(C)=O [Compound 12, 6-benzamido-9-(6-deoxy-2,3,4-tri-O-acetyl-α-L-mannopyranosyl)purine] | selective Cu^2+ chelating agents | not active | > 20 µM | > 20 µM | – | – | inhibition at 20 µM [3]: 5%; eeAChE inhibition, result in words [4]: not active; inhibition at 20 µM [4]: 8%; hBChE inhibition, result in words [6]: not active; hAChE inhibition, result in words [7]: not active
8 | C[C@H]1O[C@H](n2cnc3c(NC(=O)c4ccccc4)ncnc32)[C@@H](OCc2ccccc2)[C@@H](OCc2ccccc2)[C@@H]1OCc1ccccc1 [Compound 9, 6-benzamido-9-(6-deoxy-2,3,4-tri-O-benzyl-α-D-mannopyranosyl)purine] | – | – | > 20 µM | 4.7 µM and 4.69 µM | 15.4 ± 1.1 µM | > 20 µM | inhibition at 20 µM [3]: 28%; eeAChE inhibition, result in words [4]: selective inhibitor; hBChE inhibition, result in words [6]: selective inhibitor; inhibition at 20 µM [7]: 25%
9 | C[C@@H]1O[C@H](n2cnc3c(NC(=O)c4ccccc4)ncnc32)[C@H](OCc2ccccc2)[C@H](OCc2ccccc2)[C@H]1OCc1ccccc1 [Compound 16, 6-benzamido-9-(6-deoxy-2,3,4-tri-O-benzyl-β-L-mannopyranosyl)purine] | non-selective chelator | – | > 5 µM | > 5 µM | > 5 µM | > 5 µM | water solubility, in words [9]: dramatic reduction of aqueous solubility; inhibition percentage hBChE [6, 10]: 30 ± 7%; inhibition at 5 µM ([6]; at 5 μM (lower water solubility), read-out: inhibition percentage hBChE): < 50%
10 | COc1ccc2c3c1O[C@H]1C[C@@H](O)C=C[C@@]31CCN(C)C2 [Galantamine] | – | – | – | – | – | – | IC50 (serum BChE): 59.2 ± 1.7 µM; IC50 (brain AChE): 5 ± 0.071 µM
11 | C[C@H]1O[C@@H](n2cnc3c(NC(=O)c4ccccc4)ncnc32)[C@@H](OCc2ccccc2)[C@@H](OCc2ccccc2)[C@@H]1OCc1ccccc1 [Compound 10, 6-benzamido-9-(6-deoxy-2,3,4-tri-O-benzyl-β-D-mannopyranosyl)purine] | – | moderate inhibition | 11.7 ± 1.2 µM | 15 ± 2.1 µM | 8.7 ± 1.35 µM | 17.8 ± 2.2 µM | –
12 | C[C@@H]1O[C@@H](n2cnc3c(NC(=O)c4ccccc4)ncnc32)[C@H](OCc2ccccc2)[C@H](OCc2ccccc2)[C@H]1OCc1ccccc1 [Compound 15, 6-benzamido-9-(6-deoxy-2,3,4-tri-O-benzyl-α-L-mannopyranosyl)purine] | selective copper chelator | – | > 5 µM | > 5 µM | > 5 µM | > 5 µM | interaction with aluminum ion, result in words [1]: no relevant interaction; inhibition at 5 µM ([4]; read-out: inhibition percentage eeAChE, at 5 μM (lower water solubility)): ≤ 50%; water solubility, in words [9]: dramatic reduction of aqueous solubility; interaction with iron ion, result in words [5]: no relevant interaction; inhibition percentage hAChE [7, 10]: 28 ± 3%; interaction with zinc ion, result in words [8]: no relevant interaction
13 | O=C(Nc1ncnc2ncn([C@@H]3O[C@H](COCc4ccccc4)[C@@H](OCc4ccccc4)[C@H](OCc4ccccc4)[C@@H]3OCc3ccccc3)c12)c1ccccc1 [Compound 8, 6-benzamido-7-(2,3,4,6-tetra-O-benzyl-β-D-mannopyranosyl)purine] | – | – | 4.4 ± 1.3 µM | 2.6 µM and 2.61 µM | 4.6 µM and 4.55 µM | 4.8 µM and 4.81 µM | –
